Type in all cases: functional
One assay concerns MCF7. Kind of assay: Antiproliferative activity against human MCF7 cells assessed as inhibition of cell growth incubated for 96 hrs by MTT based ELISA. Particulars: MCF7, 96 h. Background: In an ELISA, binding on a coated surface is turned into a signal by an enzyme label.
Another assay relates to MDA-MB-231. Kind of assay: Antiproliferative activity against human MDA-MB-231 cells assessed as inhibition of cell growth incubated for 96 hrs by MTT based ELISA. Particulars: MDA-MB-231, 96 h.
The next assay deals with PC-3. Put plainly: Antiproliferative activity against human PC-3 cells assessed as inhibition of cell growth incubated for 96 hrs by MTT based ELISA. As to conditions: PC-3, 96 h.
In another assay the test system is HCT-116. Kind of assay: Antiproliferative activity against human HCT-116 cells assessed as inhibition of cell growth incubated for 96 hrs by MTT based ELISA. Particulars: HCT-116, 96 h.
The test system of a further assay is NCI-H2228. Kind of assay: Antiproliferative activity against human NCI-H2228 cells assessed as inhibition of cell growth incubated for 96 hrs by MTT based ELISA. As to conditions: NCI-H2228, 96 h.
The subject of a further assay is Huh-7. Put plainly: Antiproliferative activity against human Huh-7 cells assessed as inhibition of cell growth incubated for 96 hrs by MTT based ELISA. As to conditions: Huh-7, 96 h.

Molecules are shown by their SMILES.

By IC50 is commonly meant the concentration needed to halve the response being measured. In the case of `COc1ccc2c(c1)c1nc(Cl)c3ccccc3c1n2CCCNc1ccn([C@@H]2O[C@H](CO)[C@@H](O)[C@@H]2O)c(=O)n1`, the IC50 in the assay with MCF7, with MDA-MB-231, in the assay on PC-3, in the assay on HCT-116, in the assay with NCI-H2228 and in the assay with Huh-7 was more than 10 µM each time.

Consider `COc1ccc2c(c1)c1nc(Cl)c3ccccc3c1n2CCCN1CCN(C)CC1`, for which the IC50 in the assay on MCF7 worked out at 1.36 µM; in the assay with MDA-MB-231 it was 2.24 µM; in the assay with PC-3, 0.82 µM; with HCT-116, 1.65 µM; with NCI-H2228 it was 2.41 µM; in the assay on Huh-7, 3.31 µM.

Turning to `COc1ccc2c(c1)c1nc(Cl)c3ccccc3c1n2CCCN1C(=O)CC(C)(C)CC1=O`, the IC50 in the assay with MCF7, with MDA-MB-231, in the assay with PC-3, in the assay with HCT-116, in the assay on NCI-H2228 and in the assay on Huh-7 was more than 10 µM each time.

On to `O=C(CCCn1c2ccc(OC(F)F)cc2c2nc(Cl)c3ccccc3c21)NO`, for which the IC50 in the assay on MCF7 amounted to 4.35 µM; in the assay on MDA-MB-231, 3.69 µM; in the assay with PC-3, 4.11 µM; with HCT-116, 2.5 µM; with NCI-H2228, 5.31 µM; with Huh-7, 4.13 µM.

`O=C(CCCn1c2ccc(OC(F)F)cc2c2ncc3ccccc3c21)NO`: the IC50 with MCF7 was found to be 5.71 µM; in the assay on MDA-MB-231, 2.38 µM; in the assay on PC-3, 4.3 µM; in the assay on HCT-116, 4.07 µM; with NCI-H2228, 3.74 µM; in the assay with Huh-7, 3.37 µM.

Regarding `COc1ccc2c(c1)c1nc(Cl)c3ccccc3c1n2CCCN1CCN(C(C)C)CC1`, the IC50 in the assay on MCF7 was found to be 1.76 µM; in the assay on MDA-MB-231, 2.52 µM; with PC-3, 1.12 µM; with HCT-116 it was 1.79 µM; with NCI-H2228, 2.36 µM; in the assay on Huh-7, 2.26 µM.

Turning to `COc1ccc2c(c1)c1nc(Cl)c3ccccc3c1n2CCCn1c(=O)c(F)cn([C@@H]2O[C@H](CO)[C@@H](O)[C@H]2O)c1=O`, the IC50 in the assay on MCF7, with MDA-MB-231, in the assay with PC-3, in the assay with HCT-116, with NCI-H2228 and in the assay on Huh-7 was more than 10 µM in each case.

In the case of `COc1ccc2c(c1)c1nc(Cl)c3ccccc3c1n2CCCn1cnc(C)c1`, the IC50 in the assay with MCF7, in the assay with MDA-MB-231, with PC-3, in the assay on HCT-116, with NCI-H2228 and in the assay with Huh-7 was more than 10 µM each time.

`COc1ccc2c(c1)c1nc(Cl)c3ccccc3c1n2CCCN1CCOCC1`: the IC50 with MCF7, with MDA-MB-231, in the assay on PC-3, in the assay on HCT-116, in the assay with NCI-H2228 and in the assay on Huh-7 was more than 10 µM throughout.

Regarding `COc1ccc2c(c1)c1nc(Cl)c3ccccc3c1n2CCCNc1nc(=O)n([C@@H]2O[C@H](CO)[C@@H](O)[C@H]2O)cc1F`, the IC50 in the assay on MCF7, in the assay on MDA-MB-231, with PC-3, in the assay on HCT-116, in the assay on NCI-H2228 and with Huh-7 was more than 10 µM throughout.

With `COc1ccc2c(c1)c1nc(Cl)c3ccccc3c1n2CCCN1CCCC(O)C1` (centres undefined), the IC50 in the assay with MCF7 stood at 3.61 µM; with MDA-MB-231, 5.04 µM; with PC-3 it was 3.26 µM; in the assay on HCT-116, 3.68 µM; with NCI-H2228 it was 3.1 µM; with Huh-7, 4.57 µM.

Turning to `CN(C)CCCn1c2ccccc2c2nc(Cl)c3ccccc3c21`, the IC50 in the assay with MCF7 came to 2.75 µM; in the assay on MDA-MB-231, 1.95 µM; in the assay on PC-3 it was 2.67 µM; in the assay on HCT-116, 1.33 µM; with NCI-H2228 it was 1.51 µM; in the assay on Huh-7, 2.99 µM.

As for `CN(C)CCCn1c2ccccc2c2[nH]c(=O)c3ccccc3c21`, the IC50 with MCF7 was 6.84 µM; in the assay with MDA-MB-231, 5.9 µM; with PC-3, 4.38 µM; with HCT-116, 4.05 µM; in the assay on NCI-H2228, 7.03 µM; in the assay on Huh-7, more than 10 µM.

In the case of `COc1ccc2c(c1)c1[nH]c(=O)c3ccccc3c1n2CCCN(C)C`, the IC50 was found to be 1.41 µM with MCF7; 1.92 µM in the assay with MDA-MB-231; 1.32 µM with PC-3; 0.55 µM in the assay with HCT-116; 2.03 µM with NCI-H2228; 2.55 µM in the assay on Huh-7.

Take `COc1ccc2c(c1)c1nc(Cl)c3ccccc3c1n2CCCN1CC[C@@H](O)C1`: the IC50 in the assay on MCF7, with MDA-MB-231, in the assay on PC-3, with HCT-116, in the assay with NCI-H2228 and in the assay on Huh-7 was more than 10 µM each time.

`COc1ccc2c(c1)c1nc(Cl)c3ccccc3c1n2CCCN1CCC(N(C)C)CC1`: the IC50 stood at 2.96 µM in the assay with MCF7; 4.1 µM in the assay on MDA-MB-231; 2.7 µM in the assay with PC-3; 2.55 µM in the assay on HCT-116; 2.73 µM with NCI-H2228; 4.36 µM in the assay on Huh-7.

Regarding `CCOc1ccc2c(c1)c1nc(Cl)c3ccccc3c1n2CCCC(=O)NO`, the IC50 with MCF7 came out at 3.73 µM; in the assay with MDA-MB-231 it was 1.92 µM; in the assay on PC-3, 2.58 µM; in the assay on HCT-116, 1.8 µM; with NCI-H2228, 4.66 µM; in the assay with Huh-7 it was 3.92 µM.

For `COc1ccc2c(c1)c1nc(Cl)c3ccccc3c1n2CCCNc1ccn([C@H]2C[C@H](O)[C@@H](CO)O2)c(=O)n1`, the IC50 with MCF7, in the assay on MDA-MB-231, in the assay on PC-3, with HCT-116, in the assay with NCI-H2228 and in the assay on Huh-7 was more than 10 µM throughout.

In the case of `COc1ccc2c(c1)c1nc(Cl)c3ccccc3c1n2CCCn1cc(C)nc1C`, the IC50 in the assay on MCF7, in the assay with MDA-MB-231, in the assay with PC-3, in the assay with HCT-116, with NCI-H2228 and in the assay with Huh-7 was more than 10 µM in each case.

For `COc1ccc2c(c1)c1ncc3ccccc3c1n2CCCN(C)C`, the IC50 came out at 1.45 µM in the assay with MCF7; 1.09 µM in the assay with MDA-MB-231; 1.01 µM with PC-3; 0.62 µM in the assay on HCT-116; 1.05 µM with NCI-H2228; 1.5 µM in the assay with Huh-7.

For the molecule `COc1ccc2c(c1)c1nc(Cl)c3ccccc3c1n2CCCN1CCC[C@@H]1CO`, the IC50 in the assay with MCF7, with MDA-MB-231, with PC-3, in the assay with HCT-116, in the assay with NCI-H2228 and with Huh-7 was more than 10 µM each time.

With `CC(C)Oc1ccc2c(c1)c1[nH]c(=O)c3ccccc3c1n2CCCN(C)C`, the IC50 in the assay with MCF7 is more than 10 µM; with MDA-MB-231 it was 5.6 µM; with PC-3, 4.91 µM; with HCT-116, 2.26 µM; with NCI-H2228 it was 2.56 µM; with Huh-7, 6.74 µM.

Turning to `CC(C)Oc1ccc2c(c1)c1ncc3ccccc3c1n2CCCC(=O)NO`, the IC50 is 4.56 µM with MCF7; 1.78 µM in the assay on MDA-MB-231; 2.57 µM in the assay on PC-3; 2.14 µM in the assay with HCT-116; 4.86 µM in the assay with NCI-H2228; 4.43 µM in the assay with Huh-7.

Take `COc1ccc2c(c1)c1nc(Cl)c3ccccc3c1n2CCCn1c(=O)[nH]cc(F)c1=O`: the IC50 in the assay with MCF7, with MDA-MB-231, in the assay with PC-3, in the assay on HCT-116, in the assay with NCI-H2228 and in the assay on Huh-7 was more than 10 µM throughout.

(Values after ChEMBL document CHEMBL5576135, “Discovery of Indolo[3,2-c]isoquinoline Derivatives as Novel Top1/2 Dual Inhibitors with Orally Efficacious Antitumor Activity and Low Toxicity” (J Med Chem, 2024).)
